From US12478617B2, “Lipidated peptide inhibitors of interleukin-23 receptor” (JANSSEN BIOTECH, INC., priority 2021, dated 2025)
Read-outs that look alike come from different tables or passages of the source.

Settings: disulfide bond, 20-membered ring, I2/AcOH, ACN/H2O

CC(=O)NCCCC[C@@H]1NC(=O)[C@H](Cc2c[nH]c3c(C)cccc23)NC(=O)[C@H]([C@@H](C)O)NC(=O)[C@H](CC(N)=O)NC(=O)[C@@H](NC(=O)[C@@H](CCCCNC(=O)COCCOCCNC(=O)COCCOCCNC(=O)CC[C@H](NC(=O)CCCCCCCCCCCCCCCCC(=O)O)C(=O)O)NC(C)=O)C(C)(C)SSC(C)(C)[C@@H](C(=O)N[C@@H](Cc2ccc(OCCN)cc2)C(=O)N[C@@H](Cc2ccc3ccccc3c2)C(=O)NC2(C(=O)N[C@@H](CCCCNC(C)=O)C(=O)N[C@@H](CC(N)=O)C(=O)N[C@@H](Cc3cccnc3)C(=O)N(C)CC(N)=O)CCOCC2)NC1=O gave a ring closure, yield after HPLC (from Ac-dLys(PEG2PEG2gEC18OH)-Pen-Asn-Thr-7MeTrp-Lys(Ac)-Pen-AEF-2Nal-THP-Lys(Ac)-Asn-3Pya-Sar-NH2, […]) of 28%.
Compound CC(=O)NCCCC[C@@H]1NC(=O)[C@H](Cc2c[nH]c3c(C)cccc23)NC(=O)[C@H]([C@@H](C)O)NC(=O)[C@H](CC(N)=O)NC(=O)[C@@H](NC(=O)[C@@H](CCCCNC(=O)COCCOCCNC(=O)COCCOCCNC(=O)CC[C@H](NC(=O)CCCCCCCCCCCCCCCCC(=O)O)C(=O)O)NC(C)=O)C(C)(C)SSC(C)(C)[C@@H](C(=O)N[C@@H](Cc2ccc(OCCN)cc2)C(=O)N[C@@H](Cc2ccc3ccccc3c2)C(=O)NC2(C(=O)N[C@@H](CCCCNC(C)=O)C(=O)N[C@@H](CC(N)=O)C(=O)N[C@@H](Cc3cccnc3)C(=O)N(CC(N)=O)Cc3ccc(C(N)=O)cc3)CCOCC2)NC1=O has a ring closure, yield after HPLC (from Ac-dLys(PEG2PEG2gEC18OH)-Pen-Asn-Thr-7MeTrp-Lys(Ac)-Pen-AEF-2Nal-THP-Lys(Ac)-Asn-3Pya-N(4AmBenzyl)Gly-NH2, 1.72 mM) of 26.8%.
For CC(=O)NCCCC[C@@H]1NC(=O)[C@H](Cc2c[nH]c3c(C)cccc23)NC(=O)[C@H]([C@@H](C)O)NC(=O)[C@H](CC(N)=O)NC(=O)[C@@H](NC(=O)[C@@H](CCCCNC(=O)COCCOCCNC(=O)COCCOCCNC(=O)CC[C@H](NC(=O)CCCCCCCCCOc2cccc(C(=O)O)c2)C(=O)O)NC(C)=O)C(C)(C)SSC(C)(C)[C@@H](C(=O)N[C@@H](Cc2ccc(OCCN)cc2)C(=O)N[C@@H](Cc2ccc3ccccc3c2)C(=O)NC2(C(=O)N[C@@H](CCCCNC(=O)COCCOCCNC(=O)COCCOCCNC(=O)CC[C@H](NC(=O)CCCCCCCCCOc3cccc(C(=O)O)c3)C(=O)O)C(=O)N[C@@H](CC(N)=O)C(=O)N[C@@H](Cc3cccnc3)C(=O)N(C)CC(N)=O)CCOCC2)NC1=O, the ring closure, yield after HPLC (from Ac-dLys(PEG2PEG2gEmXOH)-Pen-Asn-Thr-7MeTrp-Lys(Ac)-Pen-AEF-2Nal-THP-Lys(PEG2PEG2gEmXOH)-Asn-3Pya-Sar-NH2, […]) was 13%.
With CC(=O)NCCCC[C@@H]1NC(=O)[C@H](Cc2c[nH]c3c(C)cccc23)NC(=O)[C@H]([C@@H](C)O)NC(=O)[C@H](CC(N)=O)NC(=O)[C@@H](NC(=O)[C@@H](CCCCNC(=O)COCCOCCNC(=O)COCCOCCNC(=O)C[N+](C)(C)CCNC(=O)CC[C@H](NC(=O)CCCCCCCCCCCCCCCCC(=O)O)C(=O)O)NC(C)=O)C(C)(C)SSC(C)(C)[C@@H](C(=O)N[C@@H](Cc2ccc(OCCN)cc2)C(=O)N[C@@H](Cc2ccc3ccccc3c2)C(=O)NC2(C(=O)N[C@@H](CCCCNC(C)=O)C(=O)N[C@@H](CC(N)=O)C(=O)N[C@@H](Cc3cccnc3)C(=O)N(C)CC(N)=O)CCOCC2)NC1=O the ring closure, yield after HPLC (from Ac-dLys(PEG2PEG2SP6gEC18OH)-Pen-Asn-Thr-7MeTrp-Lys(Ac)-Pen-AEF-2Nal-THP-Lys(Ac)-Asn-3Pya-Sar-NH2, 0.343 mM) was 35%.
Work on CC(=O)NCCCC[C@@H]1NC(=O)[C@H](Cc2c[nH]c3c(C)cccc23)NC(=O)[C@H]([C@@H](C)O)NC(=O)[C@H](CC(N)=O)NC(=O)[C@@H](NC(=O)[C@@H](CCCNC(=N)N)NC(=O)COCCOCCNC(=O)COCCOCCNC(=O)CC[C@H](NC(=O)CCCCCCCCCCCCCCCCC(=O)O)C(=O)O)C(C)(C)SSC(C)(C)[C@@H](C(=O)N[C@@H](Cc2ccc(OCCN)cc2)C(=O)N[C@@H](Cc2ccc3ccccc3c2)C(=O)NC2(C(=O)N[C@@H](CCCCNC(C)=O)C(=O)N[C@@H](CC(N)=O)C(=O)N[C@@H](Cc3cccnc3)C(=O)N(C)CC(N)=O)CCOCC2)NC1=O yielded a ring closure, yield after HPLC (from HOC18gEPEG2PEG2-dArg-Pen-Asn-Thr-7MeTrp-Lys(Ac)-Pen-AEF-2Nal-THP-Lys(Ac)-Asn-3Pya-Sar-NH2, 0.361 mM) of 22%.
In the case of CC(=O)NCCCC[C@@H]1NC(=O)[C@H](Cc2c[nH]c3c(C)cccc23)NC(=O)[C@H]([C@@H](C)O)NC(=O)[C@H](CC(N)=O)NC(=O)[C@@H](NC(=O)[C@@H](CCCNC(=N)N)NC(C)=O)C(C)(C)SSC(C)(C)[C@@H](C(=O)N[C@@H](Cc2ccc(OCCN)cc2)C(=O)N[C@@H](Cc2ccc3ccccc3c2)C(=O)NC2(C(=O)N[C@@H](CCC(=O)O)C(=O)N[C@@H](CC(N)=O)C(=O)N[C@@H](Cc3cccnc3)C(=O)N(C)CC(=O)N[C@@H](CCCCNC(=O)COCCOCCNC(=O)COCCOCCNC(=O)CC[C@H](NC(=O)CCCCCCCCCCCCCCCCC(=O)O)C(=O)O)C(N)=O)CCOCC2)NC1=O, the ring closure, yield after HPLC (from Ac-dArg-Pen-Asn-Thr-Trp(7-Me)-Lys(Ac)-Pen-AEF-2Nal-THP-Glu-Asn-3Pya-Sar-Lys(PEG2PEG2gEC18OH)-NH2, 0.345 mM) is reported as 5%.
In the case of CC(=O)NCCCC[C@@H]1NC(=O)[C@H](Cc2c[nH]c3c(C)cccc23)NC(=O)[C@H]([C@@H](C)O)NC(=O)[C@H](CC(N)=O)NC(=O)[C@@H](NC(=O)[C@@H](CCCNC(=N)N)NC(C)=O)C(C)(C)SSC(C)(C)[C@@H](C(=O)N[C@@H](Cc2ccc(OCCN)cc2)C(=O)N[C@@H](Cc2ccc3ccccc3c2)C(=O)NC2(C(=O)N[C@@H](CCC(=O)O)C(=O)N[C@@H](CC(N)=O)C(=O)N[C@@H](Cc3cccnc3)C(=O)N(C)[C@@H](CCCCNC(=O)COCCOCCNC(=O)COCCOCCNC(=O)CC[C@H](NC(=O)CCCCCCCCCCCCCCCCC(=O)O)C(=O)O)C(N)=O)CCOCC2)NC1=O, the ring closure, yield after HPLC (from Ac-dArg-Pen-Asn-Thr-7MeTrp-Lys(Ac)-Pen-AEF-2Nal-THP-Glu-Asn-3Pya-MeLys(PEG2PEG2gEC18OH)-NH2, […]) is reported as 11%.
Compound CC(=O)NCCCC[C@@H]1NC(=O)[C@H](Cc2c[nH]c3c(C)cccc23)NC(=O)[C@H]([C@@H](C)O)NC(=O)[C@H](CC(N)=O)NC(=O)[C@@H](NC(=O)[C@@H](CCCNC(=N)N)NC(C)=O)C(C)(C)SSC(C)(C)[C@@H](C(=O)N[C@@H](Cc2ccc(OCCN)cc2)C(=O)N[C@@H](Cc2ccc3ccccc3c2)C(=O)NC2(C(=O)N[C@@H](CCCCNC(C)=O)C(=O)N[C@@H](CC(N)=O)C(=O)N[C@@H](Cc3cccnc3)C(=O)N(CCOCCOCCNC(=O)COCCOCCNC(=O)CC[C@H](NC(=O)CCCCCCCCCCCCCCCCC(=O)O)C(=O)O)CC(N)=O)CCOCC2)NC1=O has a ring closure, yield after HPLC (from Ac-dArg-Pen-Asn-Thr-7MeTrp-Lys(Ac)-Pen-AEF-2Nal-THP-Lys(Ac)-Asn-3Pya-N(PEG2PEG2gEC18OH)Gly-NH2, […]) of 19.6%.
CC(=O)NCCCC[C@@H]1NC(=O)[C@H](Cc2c[nH]c3c(C)cccc23)NC(=O)[C@H]([C@@H](C)O)NC(=O)[C@H](CC(N)=O)NC(=O)[C@@H](NC(=O)[C@@H](CCCNC(=N)N)NC(C)=O)C(C)(C)SSC(C)(C)[C@@H](C(=O)N[C@@H](Cc2ccc(OCCNC(=O)COCCOCCNC(=O)COCCOCCNC(=O)CC[C@H](NC(=O)CCCCCCCCCCCCCCCCC(=O)O)C(=O)O)cc2)C(=O)N[C@@H](Cc2ccc3ccccc3c2)C(=O)NC2(C(=O)N[C@@H](CCCCNC(C)=O)C(=O)N[C@@H](CC(N)=O)C(=O)N[C@@H](Cc3cccnc3)C(=O)N(C)CC(N)=O)CCOCC2)NC1=O gave a ring closure, yield after HPLC (from Ac-dArg-Pen-Asn-Thr-7MeTrp-Lys(Ac)-Pen-AEF(PEG2PEG2gEC18OH)-2Nal-THP-Lys(Ac)-Asn-3Pya-Sar-NH2, 0.355 mM) of 10%.
With CC(=O)NCCCC[C@@H]1NC(=O)[C@H](Cc2c[nH]c3c(C)cccc23)NC(=O)[C@H]([C@@H](C)O)NC(=O)[C@H](CC(N)=O)NC(=O)[C@@H](NC(C)=O)C(C)(C)SSC(C)(C)[C@@H](C(=O)N[C@@H](Cc2ccc(OCCN)cc2)C(=O)N[C@@H](Cc2ccc3ccccc3c2)C(=O)NC2(C(=O)N[C@@H](CCCCNC(=O)COCCOCCNC(=O)COCCOCCNC(=O)CC[C@H](NC(=O)CCCCCCCCCCCCCCCCC(=O)O)C(=O)O)C(=O)N[C@@H](CC(N)=O)C(=O)N[C@@H](Cc3cccnc3)C(=O)N(C)CC(N)=O)CCOCC2)NC1=O the ring closure, yield after HPLC (from Ac-Pen-Asn-Thr-7MeTrp-Lys(Ac)-Pen-AEF-2Nal-THP-Lys(PEG2PEG2gEC18OH)-Asn-3Pya-Sar-NH2, 0.382 mM) was 24%.
With CCCCCCCCCCCCCCCC(=O)N[C@@H](CCC(=O)NCCCC[C@H](NC(=O)C1(NC(=O)[C@H](Cc2ccc3ccccc3c2)NC(=O)[C@H](Cc2ccc(OCCN)cc2)NC(=O)[C@H]2NC(=O)[C@H](CCCCNC(C)=O)NC(=O)[C@H](Cc3c[nH]c4c(C)cccc34)NC(=O)[C@H]([C@@H](C)O)NC(=O)[C@H](CC(N)=O)NC(=O)[C@@H](NC(=O)[C@@H](CCCCNC(=O)COCCOCCNC(=O)COCCOCCNC(=O)CC[C@H](NC(=O)CCCCCCCCCCCCCCC(=O)O)C(=O)O)NC(C)=O)C(C)(C)SSC2(C)C)CCOCC1)C(=O)N[C@@H](CC(N)=O)C(=O)N[C@@H](Cc1cccnc1)C(=O)N(C)CC(N)=O)C(=O)O the ring closure, yield after HPLC (from Ac-dLys(PEG2PEG2gEC16OH)-Pen-Asn-Thr-7MeTrp-Lys(Ac)-Pen-AEF-2Nal-THP-Lys(gEC16)-Asn-3Pya-Sar-NH2, 1.62 mM) was 13%.
In the case of “MeCO-k(PEG2PEG2gE(c)C180H)-Pen*-N-T-7MeW-K(Ac)-Pen*-AEF-2Nal-THP—K(Ac)-N-3Pya-Sar-CONH2”, the ring closure, yield after HPLC (ascorbic acid quench, 0.34 mM) is reported as 20%.
